Common to all, as to assay type: cell-based, human
Data set [1] concerns immune competent bioprinted liver tissue constructs. Description: NASH induction in bioprinted liver tissue constructs, histology (H&E, trichrome, desmin/α-SMA, CK18).
Description: Kupffer cells (KCs) were added to the parenchymal region in the bioprinted liver tissue construct of Example 6.
Separate high density bioinks comprising parenchymal cells (100% cellular paste, generated via compaction having human hepatocyte cells and human Kupffer cells) or nonparenchymal cells (150e6 cells/mL of endothelial cells and hepatic stellate cells formulated in hydrogel) were prepared and loaded into separate heads of the NovoGen Bioprinter™ Instrument within a standard biosafety cabinet. A computer script was then executed to deposit the bioinks in a two-compartment planar geometry (2 mm^2×0.5 mm) onto the membranes of standard 24-well 0.4 μm transwell culture inserts (Corning, Tewksbury, MA USA) via continuous deposition microextrusion with the non-parenchymal cells comprising the border regions of each compartment and the parenchymal cells filling each compartment.
Here, the liver tissue construct having KCs was treated with 100 μg/ml of LPS and 500 uM palmitic acid daily for 21 days. LPS was used to activate the KCs in order to initiate inflammation. In turn, activated KCs release factors that activate hepatic stellate cells, which initiate fibrosis. […] Untreated tissues with and without KCs were used as controls.
Data set [2] relates to bioprinted liver tissue construct with Kupffer cells. As to the kind of experiment: Inflammatory cytokine release from bioprinted liver tissue constructs. To be noted: co-treatment of LPS at 1 ug/mL with NASH induction, 14 days (FIG. 33). On the procedure:
Tissue health were assessed at 7 day intervals using biochemical assays on spent media that measure hepatocellular function as outlined in Aim 1 (n≥5/group). Histological endpoints used to assess tissue morphology and composition (H&E, CD31, Desmin, E-cadherin, Albumin), ECM deposition (trichrome), hepatic stellate cell activation (desmin, a-smooth muscle actin ratio), lipid vacuoles (perilipin) and lipid content (Oil red 0) were measured at weekly intervals. In order to determine baseline cytokine production in response to lipid treatment, inflammatory cytokine release were measured at 7 day intervals via chemiluminescence with the V-Plex Pro-Inflammatory Panel (Meso Scale Discovery, Rockville, MD), which measures TNF-α, IL-113, IL-6, IL-8, IL-4, IL-2, IL-13, IL-12p70, IL-10, and interferon-y (IFN-y).

In data set [3] the test system is bioprinted hepatic stellate cell tissues. As to the kind of experiment: Stimulation of bioprinted hepatic stellate cell tissues with TGF-β1. On the procedure:
Cylindrical bio-ink comprising relevant heterogeneous (i.e., polytypic) cell populations were prepared. Physiologically-relevant populations (e.g., hepatic stellate cells (hSC) and human aortic endothelial cells (EC)) of cells were combined at specific ratios to generate proper bio-ink. Cells were maintained and propagated under standard laboratory conditions and cells were cultured in media either purchased from the same vendor as the cells, or media comprising components typically found in the primary literature to be conducive to standard cell culture practices for those particular cell types. Cell processing for bio-ink preparation was as follows: briefly, cells were liberated from standard tissue culture plastic by washing with cation-free phosphate buffered saline (PBS) and then exposed to 0.1-0.05% trypsin (Invitrogen). Liberated cells were then washed in serum-containing media, collected, counted, and combined in an appropriate ratio for the stimulation assay or experiment being conducted, and pelleted by centrifugation. Supernatant was then removed and the cell pellet was aspirated into a glass microcapillary, which was then submerged in complete media for approximately 15 to 20 minutes. This cylindrical bio-ink structure was then extruded into a non cell-adherent hydrogel mold, containing linear channels and held for 2 to 18 hours. Cylindrical bio-ink containing hSC: EC was then used to fabricate bioprinted tissue constructs and maintained and/or matured in a humidified chamber. Tissue segments were fabricated with initial dimensions of 1.25 mm×8 mm×0.25 mm (W×L×H). […]
The bioprinted neotissues were then submerged in serum-containing complete cell culture media and placed in a standard humidified chamber, supplemented with 5% CO2 for maturation. […] The bioprinted tissues were evaluated for characteristics such as, but not limited to for tissue morphology, cell organization, extracellular matrix production, cell proliferation, cell viability, and construct integrity. […]

The subject of data set [4] is bioprinted liver tissue constructs. As to the kind of experiment: Caspase cleaved CK18 fragments (apoptosis) in bioprinted liver tissue constructs.
The subject of data set [5] is bioprinted liver tissue construct. As to the kind of experiment: Steatosis induction in bioprinted liver tissue constructs (H&E, PLIN-5, Oil Red O). The text has this:
3D bioprinted liver tissues comprised of cryopreserved primary human hepatocytes (Life Technologies, Carlsbad, CA, USA), hepatic stellate cells (ScienCell; Carlsbad, CA, USA), and HUVEC cells (Becton Dickinson; Tewksbury, MA, USA) were bioprinted directly into 24-well Transwell plates (FIG. 20A) using the Organovo NovoGen Bioprinter Instrument (Organovo, San Diego, CA, USA).
Briefly, hepatic stellate cells and HUVEC cells were propagated per the manufacturer's instructions prior to tissue fabrication. Cryopreserved hepatocytes were thawed and prepared for use per the manufacturer's instructions. Separate high density bioinks comprising parenchymal cells (100% cellular paste, generated via compaction having hepatocyte cells) or nonparenchymal cells (150e6 cells/mL of endothelial cells and hepatic stellate cells formulated in hydrogel) were prepared and loaded into separate heads of the NovoGen Bioprinter Instrument within a standard biosafety cabinet. A computer script was then executed to deposit the bioinks in a two-compartment planar geometry (2 mm^2×0.5 mm) onto the membranes of standard 24-well 0.4 μm transwell culture inserts (Corning, Tewksbury, MA USA) via continuous deposition microextrusion with the non-parenchymal cells comprising the border regions of each compartment and the parenchymal cells filling each compartment. Following fabrication, the tissues were fed daily with 600 μL of 3D Liver Tissue Media, consisting of DMEM supplemented with Primary Hepatocyte Maintenance Supplements (Life Technologies, Carlsbad, CA, USA) and EGM-2 (Lonza, Basel, Switzerland), and incubated at 37° C. under humidified atmospheric conditions supplemented with 5% CO2. Tissues were allowed to mature in culture for at least three days following fabrication prior to initiation of experimentation, and were substantially free of pre-formed scaffold at the time of use. For the one month timecourse, tissues were fed daily for a total of 28 days post-fabrication.
The bioprinted liver tissue construct of Example 6 was treated with nutrient-mediated accumulation to induce a steatosis phenotype. Specifically, to induce steatosis, a first liver tissue construct was treated with palmitic acid (PA) of varying concentrations (200 uM PA or 500 uM PA) daily for 3 weeks in the presence of high glucose media (DMEM-HG). A second liver tissue construct was treated with a 5% and 10% lipid mix of oleic acid (OC) to palmitic acid (PA) at a ratio of 2:1 daily for 3 weeks in the presence of high glucose media (DMEM-HG). Optionally, insulin or genipin (1 uM or 5 uM) can be used to stimulate fatty acid uptake into hepatocytes and enhance the fatty phenotype. […]
The technical challenge is to make a 3D, bioprinted liver tissue construct having the disorder without adversely affecting hepatocyte function or tissue health (albumin, LOH activity, ALT), which most closely recapitulates the benign nature of steatosis commonly observed in clinical steatosis. Tissue health were assessed at 7 day intervals using biochemical assays that measure hepatocellular function (i.e., albumin) and injury (i.e., LOH and ALT) with n≥5 per treatment group. Greater than 5% fatty infiltrate into hepatocytes is considered steatotic; therefore, morphometric and biochemical assays were conducted to quantify hepatic lipid content. Tissue morphology and extracellular matrix (ECM) deposition were assessed using H&E and Trichrome staining, respectively, at 7 day intervals. […]

The subject of data set [6] is bioprinted liver tissues. Description: Drug safety: alanine transferase (ALT) in culture medium of bioprinted liver tissues. The following applies: diseased (NASH-induced with 12.5 mM fructose and 500 uM PA) tissue treated with OCA versus non-diseased tissue. The procedure: The assessment of drug safety was also investigated using the bioprinted liver tissue constructs. Non-diseased (vehicle-treated) or diseased (NASH-induced with 12.5 mM fructose and 500 uM PA) bioprinted liver tissues were treated with OCA, followed by measurement of alanine transferase (ALT) in the culture medium, a liver enzyme elevated with hepatocellular injury. […] Significance was determined by One-way ANOVA with Dunnets Multiple Comparisons Test, with the increase in ALT levels for diseased tissue following OCA treatment having a P<0.0001 as compared to diseased tissue without OCA treatment. This provides a proof of concept for application of the NASH model in assessment of differential toxicity.

lipopolysaccharide [LPS]: in data set [1] (21 days of PA and fructose (12.5 mM) with constitutive 10 ug/mL treatment, vs controls (FIG. 43)), the putative hepatocellular ballooning entry is listed as “also observed”. Also, the “fibrosis and hepatocellular ballooning” value in data set [1] (21 days of PA and fructose (12.5 mM) with constitutive 100 ug/mL LPS (FIG. 43)) was “high degree of fibrosis with putative hepatocellular ballooning”. For the same compound, in data set [2], the “cytokine levels (IL-10, IL-1β, TNF-α, IL-6)” value is reported as “significantly increased above NASH induction only”.

Turning to `O=C(CO)[C@@H](O)[C@H](O)[C@H](O)CO` [fructose], the “fibrosis (TCM)” value is “increased fibrosis” in data set [1] (14 days, fructose 20 mM, OA or OA:PA 0.5 mM, vs controls (FIG. 32)) and “increased fibrosis” in data set [1] (21 days, fructose 12.5 mM, PA 0.5 mM, vs controls (FIG. 31)).

Consider “TGF-β1: cytokine used to elicit a tissue-specific response”, for which, in data set [3] (0-50 ng/mL (FIG. 15)), the “cell density (Trichrome)” value was “dramatic decreases in cell density”; the “collagen deposition and construct size (Trichrome)” value is “increases in collagen deposition and construct size”. The “tissue outgrowth formation (gross observation)” value in data set [3] (increasing concentrations 0, 1, 10, 50 ng/mL (FIG. 15)) was “increases in tissue outgrowth formation”.

With `CCCCCCCCCCCCCCCC(=O)O` [palmitic acid], in data set [1] (7 days, 1 mM (FIG. 28A)), the “fibrosis (TCM)” value is “increased incidence” and the “putative ballooned hepatocytes (H&E)” value is recorded as “increased incidence of putative ballooned hepatocytes”. In data set [4] (7 days, 1 mM, vs all other FFA treatments and untreated controls (FIG. 28B)), the “caspase cleaved cytokine (CK) 18 fragments” value was “significantly higher levels”. In addition, the cytotoxicity entry in data set [4] (FIG. 28(B)) is “increased cytotoxicity”. Moreover, the “steatotic phenotype (incidence and size of lipid droplets, PLIN 5 staining)” value in data set [5] (200 μM and 500 μM, daily for 21 days, vs untreated controls) is reported as “induces a steatotic phenotype”. In addition, in data set [5] (21 days, 500 μM vs 200 μM (FIG. 25B)), the “lipid accumulation fold change (Oil Red O, Image J)” value is reported as “greater accumulation of lipid droplets”. The “lipid accumulation (Oil Red O, morphometric quantification)” value in data set [5] (21 days, 200 and 500 uM, vs controls (FIG. 22)) was “significant dose-dependent increase in lipid accumulation”.

In the case of `CCCCCCCC/C=C\CCCCCCCC(=O)O` [OA, Oleic Acid], in data set [1] (7 days, 1 mM (FIG. 28A)), the “fibrosis (TCM)” value was “less fibrosis” and the “macrovesicular steatosis (H&E)” value is given as “increased incidence of macrovesicular steatosis”. Moreover, the “lipid droplet (LD) size” value in data set [5] (14 days of treatment (FIG. 27)) is given as “larger sizes of LD's”.

As for `COC(=O)C1=CO[C@@H](O)[C@@H]2C(CO)=CC[C@H]12` [Genipin], in data set [5] (21 days, 5 μM Genipin added to 500 μM PA, vs 500 μM PA alone), the “lipid accumulation fold change (Oil Red O, Image J)” value is “did not further increase lipid accumulation”.

In the case of `CC[C@H]1[C@@H](O)[C@@H]2[C@H](CC[C@]3(C)[C@@H]([C@H](C)CCC(=O)O)CC[C@@H]23)[C@@]2(C)CC[C@@H](O)C[C@@H]12` [OCA, Obeticholic Acid], the “alanine transferase (ALT) in the culture medium” value in data set [6] is recorded as “increased ALT”.

The values above are taken from US12252712B2, “Use of engineered liver tissue constructs for modeling liver disorders” (Organovo, Inc., priority 2017, dated 2025).
